Assay results as given in ChEMBL document CHEMBL1149731, “Aflavarin and -Aflatrem: New Anti-Insectan Metabolites from the Sclerotia of Aspergillus flavus” (1992).
In brackets after ≈: the same amount, converted by molar mass. Activity calls are given as the source filed them. The calls are words filed in the database; no cut-off is given here.

What was measured:
Helicoverpa zea = assay: Insecticidal activity against Helicoverpa zea assessed as reduction in growth rate; assay type: functional, organism-based
Carpophilus [1] = assay: Antiinsectan activity against adult Carpophilus hemipterus assessed as feeding reduction at 100 ppm administered through test diet relative to control; assay type: functional
Carpophilus [2] = assay: Antiinsectan activity against Carpophilus hemipterus larvae assessed as feeding reduction at 100 ppm administered through test diet relative to control; assay type: functional
Carpophilus [3] = assay: Insecticidal activity against Carpophilus hemipterus; assay type: functional, organism-based
Bacillus subtilis = assay: Antibacterial activity against Bacillus subtilis at 100 ug/disk by standard disk assay; assay type: functional, organism-based
Staphylococcus aureus = assay: Antibacterial activity against Staphylococcus aureus at 100 ug/disk by standard disk assay; assay type: functional, organism-based
Candida albicans = assay: Antifungal activity against Candida albicans at 100 ug/disk by standard disk assay; assay type: functional, organism-based
A549 = assay: Cytotoxicity against human A549 cells; assay type: functional; conditions: read-out: ED50 (the source's name)
MCF7 = assay: Cytotoxicity against human MCF7 cells; assay type: functional; conditions: read-out: ED50 (the source's name)
HT-29 = assay: Cytotoxicity against human HT-29 cells; assay type: functional; conditions: read-out: ED50 (the source's name)

SMILES: C=CC(C)(C)c1ccc2[nH]c3c(c2c1)C[C@@H]1CC[C@@]2(O)C4=CC(=O)[C@@H]5O[C@]4(CC[C@]2(C)[C@@]31C)OC5(C)C
- Activity (Helicoverpa zea): Active

SMILES: COc1cc(C)c2c(OC)cc(=O)oc2c1-c1c(O)cc(C)c2c(OC)cc(=O)oc12
- Activity (Carpophilus [1]): inactive
- Activity (Carpophilus [2]): inactive

SMILES: COc1cc(CO)c2c(OC)c(-c3c(OC)cc(C)c4c(OC)cc(=O)oc34)c(=O)oc2c1 [AFLAVARIN]
- Activity (Carpophilus [1]): 66%
- Activity (Carpophilus [2]): 53%
- Activity (Carpophilus [3]): Active
- Activity (Bacillus subtilis): inactive
- Activity (Staphylococcus aureus): inactive
- Activity (Candida albicans): inactive
- EC50 (A549): 7.5 µg/mL (≈ 16.5 µM)
- EC50 (MCF7): 55 µg/mL (≈ 121 µM)
- EC50 (HT-29): 5.8 µg/mL (≈ 12.8 µM)
